This note sets out measurements from article PMC4157579, “Lysine Acetylation Controls Local Protein Conformation by Influencing Proline Isomerization” (Molecular Cell, 2014).

Ends that are not written are not given here. * marks the point of attachment. pNA = O=[N+]([O-])c1ccc(N*)cc1

For this test, the system named is chymotrypsin. As to the kind of experiment: Chymotrypsin-coupled proline isomerization assay (pNA release). The format is biochemical. The conditions noted are these: 10 μl of 7.8 mM pNA peptide per 1 ml, 395 nm, every 0.6 s for 20 s, first 0.6–10.2 s, mean initial rate, n = 4–5. From the text:
Figure 6 K14ac Promotes P16trans (A) Relative binding ± SEM (n = 2–11) assessed by surface plasmon resonance of purified recombinant Spt7 bromodomain (residues 363–619) to the indicated H3 peptides (11–26). (B) Coomassie-stained gel showing a pull-down experiment, quantified relative to the K18ac peptide, with the indicated H3 peptides and the purified recombinant Spt7 bromodomain (n = 3). (C) A chymotrypsin-coupled assay for proline isomers using synthetic hexamers based on GGKAPF-pNA (unmodified). pNA is released by chymotrypsin cleavage only from the trans-proline-containing peptide. (D) K14ac and substitutions at K14 influence isomerization at A15-P16 and pNA release, expressed as mean initial rate ± SEM (n = 4–5) over the first 0.6–10.2 s of the reaction. (E) Schematic showing how K14ac or the K14R substitution influence A15-P16 conformation. […]
Saccharomyces cerevisiae strains used in this study are shown in Supplemental Experimental Procedures. […] Quantitation was performed using ImageJ software. […] The P16 proline isomerase assay was performed as described ([Shan et al., 1994]) using 10 μl of 7.8 mM pNA peptide (Proteogenix) solution per 1 ml assay reaction and pNA release monitored at 395 nm. […] Sensorgrams, binding curves, and Kd values were analyzed with BIA T100 and T200 evaluation software (GE Healthcare) using a 1:1 binding model. […]

For GGKAPF-pNA [unmodified peptide], the “Initial rate of cleavage (pNA release)” value is recorded as “comparable to that reported previously in a similar assay”.
